Tested on: Daudi human Burkitt’s Lymphoma cell line
Test: Study 7: Daudi xenograft human Burkitt's lymphoma subcutaneous tumor model (daratumumab or AB79)
Assay type: in vivo, CB17 SCID mice
Method: Low tumor volumes can cause problems with the data analysis, so all measurements below 25 cubic mm (including 0 values) were excluded from the analysis. After this exclusion step, the tumor volume was assumed to follow an exponential growth model. More specifically, for a given animal and treatment group,
Pairwise comparisons were performed, where the mean growth rates were compared for various pairs of treatment conditions. The results were summarized using the growth rate inhibition (GRI). Suppose µT and µC are the mean tumor growth rates for the treatment and reference groups, respectively. Define
Here, µAB, µA, µB, and µControl are the mean growth rates for the combination, drug A, drug B, and control groups, respectively. As before, µv is the mean tumor growth rate for the vehicle group, which in most cases is the same as the control group. The standard error of the synergy score was calculated as the square root of the sum of squared standard errors across the four groups. The degrees of freedom were estimated using the Welch-Satterthwaite equation. A hypothesis test was performed to determine if the synergy score differed from 0. P-values were calculated by dividing the synergy score by its standard error and tested against a t-distribution (two-tailed) with the above-calculated degrees of freedom. A P value of less than 0.05 is statistically significant.
The combination results can be interpreted as follows. Statistically significant negative synergy scores indicate a synergistic combination (“Syn.”). Statistically significant positive synergy scores indicate a sub-additive combination (“Sub-add.”) when the combination performs better (i.e. has a lower growth rate) than the best performing single agent. Statistically significant positive synergy scores indicate an antagonistic combination (“Antag.”) when the combination performs worse than the best performing single agent. Scores that are not statistically significant should be considered additive (“Add.”).
Daudi is a human Burkitt’s Lymphoma cell line. A Daudi human xenograft tumor model was generated by subcutaneous inoculation with 2.0 × 10^6 Daudi cells (cell suspension) in 7 weeks old female CB17 SCID mice (Charles River Laboratories, 251 Ballardvale St., Wilmington, MA) in the flank. When the mean tumor volume reached approximately 110 mm3, the animals were randomized into one vehicle control and six treatment groups (n=8/group). Mice were then dosed with 20% HPβCD or Compound I-263a and/or daratumumab or AB79 over a 21-day period. Tumor growth and body weight were measured twice per week during the treatment and post-treatment periods, and mice were humanely euthanized once they had reached their humane endpoint.
A 0.75 mg/mL stock solution of I-263a was formulated weekly in 20% HPβCD and administered intravenously (IV) based on an average body weight using a 0.2 mL dosing volume. Final doses of I-263a received were 7.5 mg/kg. I-263a was administered on a BIW schedule for 3 weeks (Days 1, 4, 8, 11, 15, and 18). Daratumumab (anti-CD38 antibody) (Myoderm Medical Supplies, 48 E Main St., Norristown, PA 19401) was purchased at the beginning of the study and stored at 4° C. according to manufacturer’s instructions. Final dose of daratumumab received was 7.5 mg/kg based on average body weight. Daratumumab was administered intraperitoneally (IP) using a 0.1 mL dosing volume, on a BIW schedule for 3 weeks (Days, 1, 4, 8, 11, 15, and 18). AB79 was formulated on the day of dosing in 0.9% saline and administered intraperitoneally (IP) using a 0.1 mL dosing volume, on a BIW schedule for 3 weeks (Days, 1, 4, 8, 11, 15, and 18). Final dose of AB79 was 7.5 mg/kg based on average body weight.
Tumors were measured twice weekly using Vernier calipers. Tumor volumes were calculated using standard equation: V = W2 × L/2, where V = volume, W = width, and L = length for the tumor. […]

“AB79: human monoclonal antibody that binds specifically to the CD38 transmembrane glycoprotein” was tested, and the “Tumor Volume on Day 22 (±SEM)” value (AB79 7.5 mg/kg BIW IP) was 1033.8 (±208.8), the GRI% (AB79 7.5 mg/kg BIW IP, vs vehicle) was 29% and the “Tumor growth relative to vehicle-treated tumors (pairwise comparison)” value (each agent 7.5 mg/kg BIW, I-263a p = 0.105, daratumumab p < 0.001, AB79 p = 0.002, both combinations p < 0.001, data up to Day 22) was “tumor growth inhibition”.
